Data: patent US8748436B2, “Carboxylic acid derivatives having a 2,5,7-substituted oxazolopyrimidine ring” (Sanofi, priority 2010, dated 2014)

Target: T1, human Edg-1 receptor (Homo sapiens, UniProt P21453)
T1 construct: FLAG (N); expressed in transfected cells; membrane preparation
Test: GTP-γ-S assay using human Edg-1 receptors (scintillation proximity assay, CHO Flp-In cell membrane preparation)
Type: biochemical
Conditions: test compound at 10 μM; high control 10 μM S1P regarded as 100% activation; [35S]GTP-γ-S binding, triplicate; read-out: % Activation (Edg-1 receptor activation in percent of the activation by 10 μM S1P)
From the text: A) GTP-γ-S Assay Using Human Edg-1 Receptors
In order to determine the Edg-1 receptor activation by the compounds of the invention, a GTP-γ-S (guanosine 5′-[thio]triphosphate) assay for G-protein coupled receptor binding based on the scintillation proximity assay principle was used, employing a cell membrane preparation from a CHO Flp-In cell line which constitutively overexpresses the human Edg-1 receptor.
The Flp-In™ expression system (Invitrogen, cat. no. K6010-01) allows the generation of stable mammalian cell lines into which the gene of interest has been integrated through homologous recombination at a specific genomic location called Flp Recombination Target (FRT) site by means of a Flp recombinase encoded by the pOG44 expression plasmid. The integration of the pcDNA5/FRT expression construct into the Flp-In host cell line genome results in the transcription of the gene of interest. The stably transfected cells become hygromycin-resistant.
One day prior to transfection, 200 000 Flp-In-CHO cells were seeded in Ham F-12 medium (Invitrogen, cat. no. 31765) supplemented with 10% fetal calf serum (FCS; Perbio Science, cat. no. SH30068.03) in a 6-well plate and incubated at 37° C./5% CO2 overnight. Using the FuGENE® 6 transfection reagent (Roche, cat. no. 11988387001), cells were cotransfected with the Flp recombinase expression plasmid pOG44 and a modified plasmid additionally containing the edg-1 gene (accession no. NM_001400) termed as pcDNA5-FRT-TO_nFLAG_DEST-EDG-1 with a 9:1 ratio. To obtain the modified pcDNA5-FRT-TO_nFLAG_DEST plasmid, the Invitrogen plasmid pcDNA5/FRT/TO (Invitrogen, cat. no. V6520-20) was adapted to the Gateway® (Invitrogen) cloning system by inserting a Gateway cassette containing attR recombination sites flanking a ccdB gene and a chloramphenicol-resistance gene (Gateway conversion system, Invitrogen, cat. no. 11828-029). In addition a FLAG tag epitope was added before the 5′ att recombination site to allow recombinant expression of N-terminally FLAG-tagged proteins.
For the transfection of one well, 1.08 μg of pOG44 and 0.12 μg of pcDNA5-FRT-TO_nFLAG_DEST-EDG-1 were mixed to 100 μl of serum-free Ham F-12 medium containing 6 μl of FuGENE® 6 transfection reagent. After 20 min of incubation, the transfection reagent/DNA complex was distributed dropwise on the cells. The cells were incubated for 24 h at 37° C. Then the cells from 3 wells were transferred to a T75 flask (Greiner Cellstar®, cat. no. 658175) containing Ham F-12 medium supplemented with 10% of FCS but without antibiotic and were incubated another 24 h. 48 h after transfection, the medium was replaced by selection medium (Ham F-12 supplemented with 10% of FCS and 300 μg/ml of hygromycin B (Invitrogen, cat. no. 10687-010)). The medium was exchanged every 2 to 3 days until a resistant population of cells had grown. […] After 2 weeks of selection, the cells were transferred into T175 flasks (Greiner Cellstar®, cat. no. 660175) and cultivated for batch production. Cells were harvested from the culture flasks by short treatment (2 to 5 min) with Accutase (PAA, cat. no. L11-007), resuspended in selection medium (see above) and centrifuged at 200×g for 5 min. The cells were resuspended in a mixture of 90% of FCS and 10% of dimethylsulfoxide and stored frozen in liquid nitrogen.
A membrane preparation was obtained by standard methods from the afore-described CHO Flp-In cell line constitutively overexpressing the human Edg-1 receptor. Briefly, the cryopreserved cells were taken in culture and grown until confluency in T175 cell culture flasks (Becton Dickinson, cat. no. 35 5001). […]

T1 sequence (P21453 whole entry): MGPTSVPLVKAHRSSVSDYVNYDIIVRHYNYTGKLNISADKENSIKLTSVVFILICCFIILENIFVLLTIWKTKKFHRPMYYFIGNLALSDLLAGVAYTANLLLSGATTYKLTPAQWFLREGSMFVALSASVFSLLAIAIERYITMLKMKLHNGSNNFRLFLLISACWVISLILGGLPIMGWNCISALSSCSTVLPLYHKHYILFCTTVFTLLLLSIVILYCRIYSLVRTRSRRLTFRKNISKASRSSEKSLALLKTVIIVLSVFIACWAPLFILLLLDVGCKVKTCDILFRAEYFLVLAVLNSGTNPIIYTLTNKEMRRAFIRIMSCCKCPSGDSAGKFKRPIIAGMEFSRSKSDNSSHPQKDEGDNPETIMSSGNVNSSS

Row | SMILES | activation at 10 µM
1 | CCCOc1nc(Oc2cc(C)ccc2F)nc2oc(-c3cc(C)c(OCC(=O)O)c(C)c3)nc12 [Example 45, {4-[5-(2-fluoro-5-methylphenoxy)-7-propoxy-oxazolo[5,4-d]pyrimidin-2-yl]-2,6-dimethylphenoxy}-acetic acid] | 67%
2 | CCCOc1nc(OC(C)CC)nc2oc(-c3cc(C)c(OCC(=O)O)c(C)c3)nc12 (stereo not drawn) [Example 20, [4-(5-sec-butoxy-7-propoxy-oxazolo[5,4-d]pyrimidin-2-yl)-2,6-dimethyl-phenoxy]-acetic acid] | 80%
3 | CCCOc1nc(Oc2cnsn2)nc2oc(-c3cc(C)c(OCC(=O)O)c(C)c3)nc12 [Example 28, {2,6-dimethyl-4-[7-propoxy-5-([1,2,5]thiadiazol-3-yloxy)-oxazolo[5,4-d]pyrimidin-2-yl]-phenoxy}-acetic acid] | 83%
4 | CCCOc1nc(Oc2cccnc2)nc2oc(-c3cc(C)c(OCC(=O)O)c(C)c3)nc12 [Example 7, {2,6-dimethyl-4-[7-propoxy-5-(pyridin-3-yloxy)-oxazolo[5,4-d]pyrimidin-2-yl]-phenoxy}-acetic acid] | 87%
5 | CCCOc1nc(Oc2ccc(C)c(F)c2)nc2oc(-c3cc(C)c(OCC(=O)O)c(C)c3)nc12 [Example 6, {4-[5-(3-fluoro-4-methyl-phenoxy)-7-propoxy-oxazolo[5,4-d]pyrimidin-2-yl]-2,6-dimethyl-phenoxy}-acetic acid] | 73%
6 | CCCOc1nc(Oc2ccc(F)cc2F)nc2oc(-c3cc(C)c(OCC(=O)O)c(C)c3)nc12 [Example 8, {4-[5-(2,4-difluoro-phenoxy)-7-propoxy-oxazolo[5,4-d]pyrimidin-2-yl]-2,6-dimethyl-phenoxy}-acetic acid] | 84%
7 | CCCOc1nc(OCC2CCC2)nc2oc(-c3cc(C)c(OCC(=O)O)c(C)c3)nc12 [Example 13, [4-(5-cyclobutylmethoxy-7-propoxy-oxazolo[5,4-d]pyrimidin-2-yl)-2,6-dimethyl-phenoxy]-acetic acid] | 99%
8 | CCOc1nc(Oc2cc(F)ccc2F)nc2oc(-c3cc(C)c(OCC(=O)O)c(C)c3)nc12 [Example 39, {4-[5-(2,5-difluorophenoxy)-7-ethoxy-oxazolo[5,4-d]pyrimidin-2-yl]-2,6-dimethyl-phenoxy}-acetic acid] | 121%
9 | CCCOc1nc(OCCC(F)(F)F)nc2oc(-c3cc(C)c(OCC(=O)O)c(C)c3)nc12 [Example 16, {2,6-dimethyl-4-[7-propoxy-5-(3,3,3-trifluoro-propoxy)-oxazolo[5,4-d]pyrimidin-2-yl]-phenoxy}-acetic acid] | 107%
10 | CCCOc1nc(Oc2ccccc2F)nc2oc(-c3cc(C)c(OCC(=O)O)c(C)c3)nc12 [Example 4, {4-[5-(2-fluoro-phenoxy)-7-propoxy-oxazolo[5,4-d]pyrimidin-2-yl]-2,6-dimethyl-phenoxy}-acetic acid] | 76%
11 | CCOc1nc(Oc2cc(F)ccc2C)nc2oc(-c3cc(C)c(OCC(=O)O)c(C)c3)nc12 [Example 36, {4-[7-ethoxy-5-(5-fluoro-2-methylphenoxy)-oxazolo[5,4-d]pyrimidin-2-yl]-2,6-dimethyl-phenoxy}-acetic acid] | 116%
12 | CCCOc1nc(Oc2ccc(Cl)c(F)c2)nc2oc(-c3cc(C)c(OCC(=O)O)c(C)c3)nc12 [Example 64, {4-[5-(4-chloro-3-fluorophenoxy)-7-propoxy-oxazolo[5,4-d]pyrimidin-2-yl]-2,6-dimethylphenoxy}-acetic acid] | 65%
13 | CCCOc1nc(OC(C)C(F)(F)F)nc2oc(-c3cc(C)c(OCC(=O)O)c(C)c3)nc12 (stereo not drawn) [Example 24, {2,6-dimethyl-4-[7-propoxy-5-(2,2,2-trifluoro-1-methyl-ethoxy)-oxazolo[5,4-d]pyrimidin-2-yl]-phenoxy}-acetic acid] | 85%
14 | CCCOc1nc(Oc2cccc(C)c2)nc2oc(-c3cc(C)c(OCC(=O)O)c(C)c3)nc12 [Example 29, [2,6-dimethyl-4-(7-propoxy-5-(3-methylphenoxy)-oxazolo[5,4-d]pyrimidin-2-yl)-phenoxy]-acetic acid] | 75%
15 | CCCOc1nc(Oc2cc(F)ccc2Cl)nc2oc(-c3cc(C)c(OCC(=O)O)c(C)c3)nc12 [Example 65, {4-[5-(2-chloro-5-fluorophenoxy)-7-propoxy-oxazolo[5,4-d]pyrimidin-2-yl]-2,6-dimethylphenoxy}-acetic acid] | 105%
16 | CCCOc1nc(OCCC2CC2)nc2oc(-c3cc(C)c(OCC(=O)O)c(C)c3)nc12 [Example 23, {4-[5-(2-cyclopropyl-ethoxy)-7-propoxy-oxazolo[5,4-d]pyrimidin-2-yl]-2,6-dimethyl-phenoxy}-acetic acid] | 98%
17 | CCCOc1nc(Oc2cc(F)ccc2C)nc2oc(-c3cc(C)c(OCC(=O)O)c(C)c3)nc12 [Example 5, {4-[5-(5-fluoro-2-methyl-phenoxy)-7-propoxy-oxazolo[5,4-d]pyrimidin-2-yl]-2,6-dimethyl-phenoxy}-acetic acid] | 91%

Next, values leading:

Row | activation at 10 µM | SMILES
18 | 48% | CCCOc1nc(Oc2cccc(C(F)(F)F)c2F)nc2oc(-c3cc(C)c(OCC(=O)O)c(C)c3)nc12 [Example 72, {4-[5-(2-fluoro-3-trifluoromethylphenoxy)-7-propoxy-oxazolo[5,4-d]pyrimidin-2-yl]-2,6-dimethyl-phenoxy}-acetic acid]
19 | 69% | CCCOc1nc(Oc2ccc(C(F)(F)F)cc2)nc2oc(-c3cc(C)c(OCC(=O)O)c(C)c3)nc12 [Example 68, {2,6-dimethyl-4-[7-propoxy-5-(4-trifluoromethylphenoxy)-oxazolo[5,4-d]pyrimidin-2-yl]-phenoxy}-acetic acid]
20 | 102% | CCCOc1nc(Oc2ccc3ncsc3c2)nc2oc(-c3cc(C)c(OCC(=O)O)c(C)c3)nc12 [Example 66, {4-[5-(benzothiazol-6-yloxy)-7-propoxy-oxazolo[5,4-d]pyrimidin-2-yl]-2,6-dimethylphenoxy}-acetic acid]
21 | 72% | CCCOc1nc(Oc2ccc(Cl)c(C(F)(F)F)c2)nc2oc(-c3cc(C)c(OCC(=O)O)c(C)c3)nc12 [Example 78, {4-[5-(4-chloro-3-trifluoromethylphenoxy)-7-propoxy-oxazolo[5,4-d]pyrimidin-2-yl]-2,6-dimethylphenoxy}-acetic acid]
22 | 62% | CCCOc1nc(Oc2ccccc2OC(F)(F)F)nc2oc(-c3cc(C)c(OCC(=O)O)c(C)c3)nc12 [Example 71, {2,6-dimethyl-4-[7-propoxy-5-(2-trifluoromethoxyphenoxy)-oxazolo[5,4-d]pyrimidin-2-yl]-phenoxy}-acetic acid]
23 | 61% | CCCOc1nc(Oc2ccc(F)c(C(F)(F)F)c2)nc2oc(-c3cc(C)c(OCC(=O)O)c(C)c3)nc12 [Example 74, {4-[5-(4-fluoro-3-trifluoromethylphenoxy)-7-propoxy-oxazolo[5,4-d]pyrimidin-2-yl]-2,6-dimethyl-phenoxy}-acetic acid]
24 | 89% | CCCOc1nc(Oc2ccc3sc(C)nc3c2)nc2oc(-c3cc(C)c(OCC(=O)O)c(C)c3)nc12 [Example 70, {2,6-dimethyl-4-[5-(2-methylbenzothiazol-5-yloxy)-7-propoxy-oxazolo[5,4-d]pyrimidin-2-yl]-phenoxy}-acetic acid]
